Test [1] has as its system inflammatory bowel disease (IBD). The following applies: numerous murine models; cited from earlier work.
The test system of a further test is C. albicans. As to the kind of experiment: OD600 assay under simulated GI conditions, fungal contamination with or without anti-fungal recovery media. The following applies: TSB containing 2.5 mg/L Amphotericin B; C. albicans 1×10^3 CFU/mL; FaSSIF-V2; 4 hour incubation. The format is cell-based. The method, then: Experiments were performed in order to simulate an ingestible device that contains sterile media that is inoculated with a sample of fluid from the GI tract and incubated in transit. The experiments were designed to evaluate whether the assay could predict total bacterial counts over a dynamic range of 10^3 CFU/mL to 10^7 CFU/mL under a series of different conditions of pH, […], fungal strains, mucin concentrations. The samples were also incubated under conditions of shear forces and temperature that simulate conditions of an ingestible device in transit within the GI tract.
Gram-negative (Escherichia coli ATCC 25922) and Gram-positive (Staphylococcus epidermidis ATCC 12228) bacterial cultures were diluted in a standard growth media (TSB) over a dynamic range of 10^7 CFU/mL to 10^3 CFU/mL. The assay utilized […], under shear (110 rpm) and at body temperature (37° C.) over a 4 hour incubation period to simulate transit of an ingestible device within the GI tract. Experiments were performed under various conditions as indicated including: different pH levels (6.5, 7.0 and 7.8); […]; […] […] Experiments were conducted in quintuplicate. All testing was completed in simulated jejunal fluid (FaSSIF-V2; available from BioRelevant (London, UK) Cat: V2FA501 Lot: 02-1408-07, pH 6.5) using a 50 μL sample volume and a 4 hour incubation period. […]

A further test addresses human IL-6 (Homo sapiens, UniProt P05231). The following applies: cited from earlier work.
For another test, the target named is cyclophilin (Homo sapiens, UniProt P62937). The note with it: voclosporin versus cyclosporine A; cited from earlier work.
For test [2] the following is noted: binding to lipid A, the common moiety of LPS; cited from earlier work.

Usually Kd stands for the concentration at which binding is half-saturated.

cyclophilin, sequence (P62937 whole entry): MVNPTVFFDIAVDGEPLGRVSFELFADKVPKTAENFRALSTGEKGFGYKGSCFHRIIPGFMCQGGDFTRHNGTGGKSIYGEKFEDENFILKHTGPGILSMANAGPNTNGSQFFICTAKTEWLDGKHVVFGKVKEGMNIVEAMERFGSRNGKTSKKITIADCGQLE
human IL-6, sequence (P05231 30-212): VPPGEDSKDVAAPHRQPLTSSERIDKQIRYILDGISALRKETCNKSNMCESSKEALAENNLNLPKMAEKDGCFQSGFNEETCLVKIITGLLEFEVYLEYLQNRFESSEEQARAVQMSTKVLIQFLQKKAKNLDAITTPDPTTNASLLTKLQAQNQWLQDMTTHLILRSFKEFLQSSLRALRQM

For “L-glutamic acid polymer with L-alanine, L-lysine and L-tyrosine, acetate (salt) [Glatiramer acetate]”, in test [1], the “effect on inflammation and pathological manifestations of IBD” value was “reduce inflammation and ameliorate the pathological manifestations”.
Turning to `C[C@@H]1[C@H](O)[C@@H](C)/C=C/C=C/C=C/C=C/C=C/C=C/C=C/[C@H](O[C@@H]2O[C@H](C)[C@@H](O)[C@H](N)[C@@H]2O)C[C@@H]2O[C@](O)(C[C@@H](O)C[C@@H](O)[C@H](O)CC[C@@H](O)C[C@@H](O)CC(=O)O[C@H]1C)C[C@H](O)[C@H]2C(=O)O` [amphotericin B, Amphotericin B], the “background fungal growth (plate counts and optical density)” value in the test on C. albicans is reported as “reduced the background fungal growth”.
Regarding “siltuximab: a chimeric, human-murine, immunoglobulin (Ig) Gκ mAb that binds and neutralizes human IL-6”, the “binds and neutralizes human IL-6” value in the test with human IL-6 is “high affinity and specificity”.
For `C=C/C=C/C[C@@H](C)[C@@H](O)[C@H]1C(=O)N[C@@H](CC)C(=O)N(C)CC(=O)N(C)[C@@H](CC(C)C)C(=O)N[C@@H](C(C)C)C(=O)N(C)[C@@H](CC(C)C)C(=O)N[C@@H](C)C(=O)N[C@H](C)C(=O)N(C)[C@@H](CC(C)C)C(=O)N(C)[C@@H](CC(C)C)C(=O)N(C)[C@@H](C(C)C)C(=O)N1C` [voclosporin], the “binding affinity for cyclophilin” value at cyclophilin was “comparable”.

B1: Lipopolysaccharide Binding Protein (LBP): Lipopolysaccharide Binding Protein, binds with high affinity to lipid A, the common moiety of LPS (protein, UniProt P18428 26-481, looked up)
Lipopolysaccharide-binding …: ANPGLVARITDKGLQYAAQEGLLALQSELLRITLPDFTGDLRIPHVGRGRYEFHSLNIHSCELLHSALRPVPGQGLSLSISDSSIRVQGRWKVRKSFFKLQGSFDVSVKGISISVNLLLGSESSGRPTVTASSCSSDIADVEVDMSGDLGWLLNLFHNQIESKFQKVLESRICEMIQKSVSSDLQPYLQTLPVTTEIDSFADIDYSLVEAPRATAQMLEVMFKGEIFHRNHRSPVTLLAAVMSLPEEHNKMVYFAISDYVFNTASLVYHEEGYLNFSITDDMIPPDSNIRLTTKSFRPFVPRLARLYPNMNLELQGSVPSAPLLNFSPGNLSVDPYMEIDAFVLLPSSSKEPVFRLSVATNVSATLTFNTSKITGFLKPGKVKVELKESKVGLFNAELLEALLNYYILNTFYPKFNDKLAEGFPLPLLKRVQLYDLGLQIHKDFLFLGANVQYMRV
Regarding B1, the Kd in test [2] was 1 nM.

The values are drawn from patent US10610104B2, “Gastrointestinal tract detection methods, devices and systems” (priority 2016, dated 2020).
